Measurements reported in patent US8765710B2, “2′,4′-substituted nucleosides as antiviral agents” (Gilead Pharmasset LLC, priority 2007, dated 2014).

Assays:
[1] = Toxicity, luciferase assay in P4 CCR5-luc cells; type: cell-based; settings: human, read-out: Cytotoxicity CC50, P4 Cells
Description: P4 CCR5-luc cells are plated at 10,000 cells per well (100 ul) in 96 well Opaque Assay plates and incubated overnight at 37° C. The next day, the media is aspirated from the plates and replaced by 200 ul of compound freshly diluted into media in 5 fold dilutions from 100 μM to 0.0062 μM. After 4 days of incubation at 37° C., the luciferase activity is measured in the cell lysate using the Bright Glow kit from Promega and the luminescence measured using a Victor apparatus from Perkin-Elmer.

Cytotoxicity in PBMC = type: cell-based
[2] = MTS cytotoxicity assay, HepG2; type: cell-based; settings: human, HepG2 (liver) cells
Description: (§1) Human cells lines Huh 7 and HepG2 (liver), BxPC3 (pancreatic) and CEM (lymphoid) are used for the MTS assays in 96 wells plates. Drugs are freshly diluted in media at 2×100 μM, 50 μM, 25 μM, 10 μM, 5 μM, 1 μM and 50 μl is dispensed in triplicate in the plates. The wells at the periphery of the plate contain 100 ul of media only and will be the blank controls. A replicate control with no drug is always performed in each plate. 50 μl of cells are added to the plate, at 2000 cells per well for Huh 7, HepG2 and PxPC3, and 5000 cells per well for CEM cells. No cells are added at the periphery of the plate. The media used for Huh 7, HepG2 and BxPC3 cells is DMEM with 10% FBS, and Penicillin/streptomycin, and RPMI with 10% FBS, and Penicillin/streptomycin for CEM cells. After 8 days of incubation at 37° C., 20 μl of MTS dye from the CellTiter 96 Aqueous One Solution Cell Proliferation Assay kit from Promega is added to each well and the plate incubated for 2 h at 37° C. The absorbance is then read at 490 nm using the microplate reader E1800 from Biotek. The signal is calculated by subtracting the absorbance measured in the blank controls. The CC50 (Cytotoxic Concentration) value is then determined by comparing the signal obtained with the no-drug cell control with the treated cells and calculating the concentration of drug necessary to inhibit 50% of the signal in the wells treated with drugs.

[3] = tested on: rRNA of Huh 7 clone A cells; assay: HCV replicon assay, rRNA internal control (cytotoxicity, ΔCt rRNA); type: cell-based, human
Description: (§2) HCV replicon RNA-containing Huh 7 cells (clone A cells; Apath, LLC, St. Louis, Mo.) were kept at exponential growth in Dulbecco's modified Eagle's medium (high glucose) containing 10% fetal bovine serum, 4 mM L-glutamine and 1 mM sodium pyruvate, 1× nonessential amino acids, and G418 (1,000iug/m1). Antiviral assays were performed in the same medium without G418. Cells were seeded in a 96-well plate at 1,500 cells per well, and test compounds were added immediately after seeding. Incubation time 4 days. At the end of the incubation step, total cellular RNA was isolated (RNeasy 96 kit; Qiagen). Replicon RNA and an internal control (TaqMan rRNA control reagents; Applied Biosystems) were amplified in a single-step multiplex RT-PCR protocol as recommended by the manufacturer. The HCV primers and probe were designed with Primer Express software (Applied Biosystems) and covered highly conserved 5′-untranslated region (UTR) sequences (sense primer: • 5′-AGCCATGGCGTTAGTA(T)GAGTGT-3′ (SEQ ID NO:4); antisense primer: • 5′-TTCCGCAGACCACTATGG-3′ (SEQ ID NO:5); and probe: • 5′-FAM-[…]-TAMRA-3′ (SEQ ID NO:6)).
(§3) To express the antiviral effectiveness of a compound, the threshold RT-PCR cycle of the test compound was subtracted from the average threshold RT-PCR cycle of the no-drug control (ΔCtHCV). […]

[4] = MTS cytotoxicity assay, BxPC3; type: cell-based; settings: human, BxPC3 (pancreatic) cells
Description: as §1

[5] = tested on: HIV (NL43 wild type virus) in P4 CCR5-luc cells; assay: HIV titration to determine EC50 on P4 CCR5-luc cells; type: cell-based; settings: Human immunodeficiency virus 1, NL43, read-out: HIV Inhibition P4 Cells EC50
Description: HIV-Titration of PSI Activity to Determine EC50 on P4 CCR-luc Cells.
P4 CCR5-luc cells are plated at 10,000 cells per well (100 μl) in 96 well Opaque Assay plates and incubated overnight at 37° C. The next day, the media is aspirated from the plates and replaced by 100 ul of compound freshly diluted into appropriate media (DMEM, 10% FBS, G418 500 μg/ml, penicillin/streptomycin) at 2× final concentrations in 5 fold dilutions, usually from 2×100 μM to 2×0.032 uM, in triplicate, for 4 hours at 37° C. The cells are then infected with 100 ul NL43 wild type or mutant virus, at 5 ng to 20 ng of p24 per well, in the presence of 2×20 ug/ml of DEAE-Dextran, for 40-42 hours. Non infected and infected no drug controls are always present in 12plicate on each plate. An AZT control is tested in parallel for each experiment. After infection, the beta-gal is quantitated in the cell lysate using the Galacto-Star kit from Applied Biosystems and the luminescence measured using a Victor apparatus from Perkin-Elmer. The EC50 (Effective Concentration) is calculated using a Microsoft® Excel® spreadsheet that calculates the concentration necessary to inhibit the 50% of the infection. The assay is performed in at least 2 independent experiments.

[6] = tested on: HBV in HepG2-AD38 cell line; assay: HBV AD38 assay (HBV DNA in supernatant by real time PCR); type: cell-based; settings: Hepatitis B virus; read-out: HBV Inhibition EC90
Description: Biological Assays HBV AD38 Assay
The materials required for the assay comprise the following:
The HepG2-AD38 cell line.
The culture medium for HepG2-AD38 comprises DMEM-F/12, 10% fetal bovine serum, 100 IU/ml/100 ug/ml of Penicillin/streptomycin, 50 μg/ml kanamycin, 0.3 μg/ml tetracycline, and 200 μg/ml G418.
The assay medium for HepG2-AD38 comprises DMEM-F/12, 10% fetal bovine serum, 1001 U/ml/100 μg/ml of penicillin/streptomycin, 50 μg/ml kanamycin, and 200 μg/ml G418 Further materials comprise Phosphate buffered saline (PBS), Biocoated 96 well plates, DNeasy 96 tissue kit (Qiagen), QIAvac 96 vacuum manifold, Micro amp optical 96 well reaction plates (Applied Biosystems), Micro amp optical caps (Applied Biosystems), Tagman Universal PCR Master Mix (Applied Biosystems), and a 7700 Sequence detector (Applied Biosystems),
The primers and probes for HBV DNA comprise the 1125 nM forward primer (GGACCCCTGCTCGTGTTACA) (SEQ ID NO:1), the 1125 nM reverse primer (GAGAGAAGTCCACCACGAGTCTAGA) (SEQ ID NO:2), and the 250 nM probe (FAM-TGTTGACAAGAATCCTCACAATACCAC) (SEQ ID NO:3).
Seed 5×10^4 cells/well in 200 μl of culture medium in a 96 well biocoated plate and incubate the plate at 37° C. with 5% CO2. […]

[7] = tested on: HIV (NL43 virus) in P4CCR5luc cells; assay: HIV screen: primary screening at 50 μM in P4CCR5luc cells (beta-gal readout); type: cell-based; settings: Human immunodeficiency virus 1, NL43, P4 cells
Description: HIV screen: Primary Screening of PSI compounds are tested for antiviral HIV activity at 50 μM. The cells used are P4CCR5luc cells; they are human HIV indicator cells, which are derived from Hela cells, express CD4, CXCR4, CCR5, luciferase, and a beta-gal gene under the control of HIV-1 LTR. P4CCR5 luc cells are cultivated in DMEM, 10% FBS, Penicillin, Streptomycin, and G418 at 500 μg/ml. 100 μl of P4 CCR5-luc cells are plated at 10,000 cells per well in 96 well Opaque Assay plates and incubated overnight at 37° C. The next day, the media is aspirated from the plates and replaced by 100 μl of compound freshly diluted into media at 2×50 uM, in triplicate, for 4 hours at 37° C. The cells are then infected with 100 ul NL43 virus at 5 ng of p24 per well, in the presence of 2×20 ug/ml of DEAE-Dextran for 40-42 hours. Non infected, infected no drug and AZT controls are always present in triplicate on each plate. After infection the beta-gal is quantitated using the Galacto-Star kit from Applied Biosystems using the manufacturer instructions and the luminescence measured using a Victor apparatus from Perkin-Elmer. Results are represented as percentage inhibition compare to untreated cells. The assays are performed in 2 to 3 independent experiments.

[8] = MTS cytotoxicity assay, Huh 7; type: cell-based; settings: human, Huh 7 (liver) cells
Description: as §1

[9] = tested on: HCV replicon RNA in Huh 7 cells (clone A cells); assay: HCV replicon assay, clone A cells (replicon RNA by RT-PCR); type: cell-based
Description: as §2, §3

HCV S282T cells = assay: HCV inhibition in S282T cells; type: cell-based; settings: Hepatitis C virus, read-out: HCV Inhibition S282T Cells EC90
[10] = MTS cytotoxicity assay, CEM; type: cell-based; settings: human, CEM (lymphoid) cells
Description: as §1

SMILES: C[C@@H]1[C@H](n2ccc(N)nc2=O)O[C@@](CO)(N=[N+]=[N-])[C@H]1O
- CC50 at 4 days [1]: > 100 µM
- CC50 (Cytotoxicity in PBMC): > 100 µM
- CC50 at 8 days [2]: 300 µM
- Screen HCV Clone A Cells −log10 at 50 μM (Rbz) [3]: −0.59 log10
- CC50 at 8 days [4]: 400 µM
- EC50 [5]: 0.18 µM
- EC90 [6]: 1.62 µM
- inhibition at 50 µM [7]: 100%
- CC50 at 8 days [8]: > 100 µM
- Screen HCV Clone A Cells −log10 at 50 μM (HCV) ([9]; 50 μM, clone A cells, HCV RNA): −1.4 log10
- EC90 ([9]; Hepatitis C virus, Huh-7, read-out: HCV Inhibition Clone A cells EC90): 7.85 µM
- EC90 (HCV S282T cells): 73.1 µM
- CC50 at 8 days [10]: 400 µM
